From patent publication US8106225B2, “Methods of preparing substituted tetracyclines with transition metal-based chemistries” (Trustees of Tufts College, priority 1999, dated 2012) come the findings set out here.

The structures appear in SMILES notation.

What all share (assay): Antibacterial activity in vitro, MIC by broth dilution
Holding throughout (assay type): cell-based
(Dilution methods test growth across graded concentrations, often in twofold steps.)

The test system of test [1] is E. coli D 31m4 pHCM1 Tc^r. The conditions noted are these: E. coli D 31m4 pHCM1, tetracycline resistant, 18 hrs. On the procedure: (§1) Various compounds made in accordance with the invention were evaluated for anti-bacterial activity in vitro as follows. The minimum inhibitory concentration, the lowest concentration of drug that inhibits bacterial growth at 18 hrs at their appropriate temperature, is determined by the broth dilution method using L-broth or Mueller-Hinton broth. The Mueller-Hinton broth was cation-adjusted accordingly and all bacteriological methods were performed as was described by Waitz, J. A., National Commission for Clinical Laboratory Standards Document M7-A2, vol. 10, no. 8, pp. 13-20, 2nd edition, Villanova, Pa. (1990). The organisms tested represent gram-positive and gram-negative bacterial species that are susceptible to tetracyclines or are resistant to tetracyclines due to the ability to efflux tetracyclines or which confer resistance by ribosomal protection mechanisms. The clinical strains used are either susceptible to tetracyclines or are resistant to them by either drug efflux or ribosomal protection.

Test [2] relates to E. coli D31m4 Tc^s. The conditions noted are these: E. coli D31m4, tetracycline susceptible, 18 hrs. On the procedure:
as §1

Test [3] has as its system E. hirae 9790 with pAM211 Tc^r. As to conditions: E. hirae 9790 with pAM211, tetracycline resistant, 18 hrs. How it is done:
as §1

Test [4] relates to E. hirae 9790 with pMV158 Tc^r. As to conditions: E. hirae 9790 with pMV158, tetracycline resistant, 18 hrs. On the procedure: as §1
The subject of test [5] is S. aureus RN4250 Tc^r. As to conditions: S. aureus RN4250, tetracycline resistant, 18 hrs. How it is done: as §1
In test [6] the test system is S. aureus RN450 Tc^s. The conditions noted are these: S. aureus RN450, tetracycline susceptible, 18 hrs. On the procedure:
as §1

For test [7], the system named is E. coli D1-209 Tc^r. On the set-up: unit not given here. As to conditions: E. coli D1-209, tetracycline resistant, 18 hrs. On the procedure: as §1
Test [8] has as its system E. coli D1-299 Tc^r. On the set-up: unit not given here. The conditions noted are these: E. coli D1-299, tetracycline resistant, 18 hrs. On the procedure:
as §1

Test [9] deals with E. coli ML308-225 Tc^s. On the set-up: unit not given here. The conditions noted are these: E. coli ML308-225, tetracycline susceptible, 18 hrs. How it is done:
as §1

Test [10] deals with E. hirae ATCC9790 Tc^s. On the set-up: unit not given here. As to conditions: E. hirae ATCC9790, tetracycline susceptible, 18 hrs. How it is done: as §1
Test [11] deals with S. aureus MRSA5 Tc^r. On the set-up: unit not given here. As to conditions: S. aureus MRSA5, tetracycline resistant, 18 hrs. On the procedure: as §1
Test [12] deals with S. warnerii Tc^r ATCC12715. On the set-up: unit not given here. The conditions noted are these: S. warnerii ATCC12715, tetracycline resistant, 18 hrs. On the procedure: as §1

As to `CC1c2ccc(/C=C/C(=O)O)c(O)c2C(=O)C2=C(O)C3(O)C(=O)C(C(N)=O)=C(O)[C@@H](N(C)C)C3C(O)C21` (stereo partly drawn) [D, [4S-(4a,12aα)]-9-[3′-(E)-propenoic acid]-4-(dimethylamino)-1,4,4a,5,5a,6,11,12a-octahydro-3,5,10,12,12a-pentahydroxy-6-methyl-1,11-dioxo-2-naphthacenecarboxamide], the “Antibacterial Activity (minimum inhibitory concentration)” value in [1] is more than 50; in test [2], more than 50; in test [3], more than 50; in [4], 12.5; in test [5], more than 50; in test [6], 3.12. Further, the “Antibacterial Activity (minimum inhibitory concentration)” value is more than 50 in test [7]; more than 50 in test [8]; 25 in [9]; 3.12 in test [10]; more than 50 in [11]; more than 50 in test [12].
